# In patent US8450317B2, “CXCR3 receptor antagonists” (Boehringer Ingelheim International GmbH, priority 2009, dated 2013):
# Target: CXCR3 (Macaca fascicularis, UniProt A0A2K5UV19)
# Assay: functional cellular assay measuring calcium flux in CXCR3 transfected cells (block of CXCR3/IP-10 interaction)
# Format: cell-based, Cyno
# Conditions: IP-10 induced intracellular calcium flux; Cyno-CHO cells stably expressing recombinant CXCR3 and G-alpha-16; IP-10 at EC80; read-out: IC50
# Description: Compounds are assessed for the ability to block the interaction of CXCR3 and IP-10 in a functional cellular assay measuring calcium flux in CXCR3 transfected cells.
# Cyno-CHO cells, stably expressing recombinant CXCR3 and G-alpha-16 are grown in F12 medium (Mediatech #45000-360) supplemented with 10% (V/V) FBS (Mediatech #35-01500), 1% Geneticin (Invitrogen #10131-027) and 0.2% Zeocin (Invitrogen #R250-05). The cells are spun down and re-suspended in growth media to a concentration of […]. 25 microL of cell suspension is added to each well of a BD-384-well TC treated plate, providing 12,000 cells/well. The plate is incubated at 37° C./5% CO2 overnight. On the day of the assay, the plates are removed, the media is flicked out and 25 microL of Ca-4 dye in assay buffer (HBSS, 10 mM HEPES ph 7.4), containing 2 mM probenacid is added to each well. The cell assay plates are then incubated at 37° C./5% CO2 for one hour.
# Test compounds are dissolved in DMSO and diluted to 1.045 mM in DMSO. Just prior to assay, 2.75 microL of appropriately diluted test compound are added to each well of a 384 well plate containing 45 microL of HBSS buffer. After mixing, 5 microL of diluted compound are added to each well of the cell assay plate for a final assay concentration of 10 microM. The plate is incubated at room temperature for 15 min. 10 microL of IP-10 stock solution in HBSS (4× EC80 concentration) are added to each well of the cell assay plate except those cells reserved as blank wells containing buffer only. Intracellular calcium flux is recorded on the HAMAMTSU FDSS6000, using excitation at 480 nm and emission at 540 nm. Data are analyzed using Activity Base software.
# In general, the preferred potency range (IC50) of compounds in the above assay is between 1 nM to 3 μM, and the most preferred potency range is 1 nM to 200 nM.
# Chain of CXCR3 (A0A2K5UV19 entry or part of it): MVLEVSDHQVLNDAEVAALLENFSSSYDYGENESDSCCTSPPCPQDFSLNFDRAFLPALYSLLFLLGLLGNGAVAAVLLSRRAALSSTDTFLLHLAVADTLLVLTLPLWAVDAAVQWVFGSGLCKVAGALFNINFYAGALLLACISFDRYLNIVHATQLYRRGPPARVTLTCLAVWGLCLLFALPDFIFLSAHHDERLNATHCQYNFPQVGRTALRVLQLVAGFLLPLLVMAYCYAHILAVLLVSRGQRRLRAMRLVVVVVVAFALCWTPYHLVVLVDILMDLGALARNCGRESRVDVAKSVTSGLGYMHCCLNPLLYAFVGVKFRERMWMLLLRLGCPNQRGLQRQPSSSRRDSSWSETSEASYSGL
row,SMILES,IC50
1,"CC1CN(c2ccc(F)cc2-c2cnc(S(C)(=O)=O)nc2)CCN1C(=O)Cn1c(=O)[nH]c2ccccc21 (stereo not drawn) [1-[2-(4-{4-fluoro-2-[2-(methylsulfonyl)pyrimidin-5-yl]phenyl}-2-methylpiperazin-1-yl)-2-oxoethyl]-1,3-dihydro-2H-benzimidazol-2-one]",0.06 µM
2,"CS(=O)(=O)c1ncc(-c2cc(F)ccc2N2CCN(C(=O)Cn3c(=O)[nH]c4ccccc43)CC2)cn1 [1-[2-(4-{4-fluoro-2-[2-(methylsulfonyl)pyrimidin-5-yl]phenyl}piperazin-1-yl)-2-oxoethyl]-1,3-dihydro-2H-benzimidazol-2-one]",0.047 µM
3,"O=C(Cn1c(=O)[nH]c2ccccc21)N1CCN(c2ccc(F)cc2-c2cnc(N3CCOCC3)nc2)CC1 [1-[2-(4-{4-fluoro-2-[2-(morpholin-4-yl)pyrimidin-5-yl]phenyl}piperazin-1-yl)-2-oxoethyl]-1,3-dihydro-2H-benzimidazol-2-one]",0.011 µM
4,O=C(CN1CCCCC1=O)N1CCN(c2ccc(F)cc2-c2cnc(N3CCOCC3)nc2)CC1 [1-[2-(4-{4-fluoro-2-[2-(morpholin-4-yl)pyrimidin-5-yl]phenyl}piperazin-1-yl)-2-oxoethyl]piperidin-2-one],0.03 µM
5,"O=C(Cn1c(=O)[nH]c2ccccc21)N1CCN(c2ccc(F)cc2-c2cnc(N3CCCC3)nc2)CC1 [1-[2-(4-{4-fluoro-2-[2-(pyrrolidin-1-yl)pyrimidin-5-yl]phenyl}piperazin-1-yl)-2-oxoethyl]-1,3-dihydro-2H-benzimidazol-2-one]",0.014 µM
6,O=C(CN1CCCCC1=O)N1CCN(c2ccc(F)cc2-c2cnc(N3CCCC3)nc2)CC1 [1-[2-(4-{4-fluoro-2-[2-(pyrrolidin-1-yl)pyrimidin-5-yl]phenyl}piperazin-1-yl)-2-oxoethyl]piperidin-2-one],0.023 µM
7,"Cc1cc(C)n(CC(=O)N2CCN(c3ccccc3-c3cccc(Cl)c3)CC2)n1 [1-[4-(3′-Chloro-biphenyl-2-yl)-piperazin-1-yl]-2-(3,5-dimethyl-pyrazol-1-yl)-ethanone]",0.111 µM
8,"CC1CN(c2ccc(F)cc2-c2cnc(N3CCC(S(C)(=O)=O)CC3)nc2)CCN1C(=O)Cn1cnc2cccnc21 (stereo not drawn) [1-[4-(4-fluoro-2-{2-[4-(methylsulfonyl)piperidin-1-yl]pyrimidin-5-yl}phenyl)-2-methylpiperazin-1-yl]-2-(3H-imidazo[4,5-b]pyridin-3-yl)ethanone]",0.013 µM
9,"CS(=O)(=O)C1CCN(c2ncc(-c3cc(F)ccc3N3CCN(C(=O)Cn4cnc5cccnc54)CC3)cn2)CC1 [1-[4-(4-fluoro-2-{2-[4-(methylsulfonyl)piperidin-1-yl]pyrimidin-5-yl}phenyl)piperazin-1-yl]-2-(3H-imidazo[4,5-b]pyridin-3-yl)ethanone]",0.01 µM
10,"CC1CN(c2ccccc2-c2cnc(N3CCOCC3)nc2)CCN1C(=O)Cn1ccc2cccnc21 (stereo not drawn) [1-{2-Methyl-4-[2-(2-morpholin-4-yl-pyrimidin-5-yl)-phenyl]-piperazin-1-yl}-2-pyrrolo[2,3-b]pyridin-1-yl-ethanone]",0.013 µM
11,"CC1CN(c2ccccc2-c2cnc(N3CCC(S(C)(=O)=O)CC3)nc2)CCN1C(=O)Cn1c(=O)[nH]c2ccccc21 (stereo not drawn) [1-{2-[2-methyl-4-(2-{2-[4-(methylsulfonyl)piperidin-1-yl]pyrimidin-5-yl}phenyl)piperazin-1-yl]-2-oxoethyl}-1,3-dihydro-2H-benzimidazol-2-one]",0.011 µM
12,CC1CN(c2ccccc2-c2cnc(N3CCC(S(C)(=O)=O)CC3)nc2)CCN1C(=O)CN1CCCCC1=O (stereo not drawn) [1-{2-[2-methyl-4-(2-{2-[4-(methylsulfonyl)piperidin-1-yl]pyrimidin-5-yl}phenyl)piperazin-1-yl]-2-oxoethyl}piperidin-2-one],0.034 µM
13,"CC1CN(c2ccc(F)cc2-c2cnc(N3CCC(S(C)(=O)=O)CC3)nc2)CCN1C(=O)Cn1c(=O)[nH]c2ccccc21 (stereo not drawn) [1-{2-[4-(4-fluoro-2-{2-[4-(methylsulfonyl)piperidin-1-yl]pyrimidin-5-yl}phenyl)-2-methylpiperazin-1-yl]-2-oxoethyl}-1,3-dihydro-2H-benzimidazol-2-one]",0.009 µM
14,CC1CN(c2ccc(F)cc2-c2cnc(N3CCC(S(C)(=O)=O)CC3)nc2)CCN1C(=O)CN1CCCCC1=O (stereo not drawn) [1-{2-[4-(4-fluoro-2-{2-[4-(methylsulfonyl)piperidin-1-yl]pyrimidin-5-yl}phenyl)-2-methylpiperazin-1-yl]-2-oxoethyl}piperidin-2-one],0.014 µM
15,CS(=O)(=O)C1CCN(c2ncc(-c3cc(F)ccc3N3CCN(C(=O)CN4CCCCC4=O)CC3)cn2)CC1 [1-{2-[4-(4-fluoro-2-{2-[4-(methylsulfonyl)piperidin-1-yl]pyrimidin-5-yl}phenyl)piperazin-1-yl]-2-oxoethyl}piperidin-2-one],0.015 µM
16,"CC1CN(C(=O)Cn2ccc3cccnc32)CCN1c1ccccc1-c1cnc(N2CCOCC2)nc1 (stereo not drawn) [1-{3-Methyl-4-[2-(2-morpholin-4-yl-pyrimidin-5-yl)-phenyl]-piperazin-1-yl}-2-pyrrolo[2,3-b]pyridin-1-yl-ethanone]",0.011 µM

# Further compounds by falling IC50, results first:
row,IC50,SMILES
1,0.009 µM,"CC1CN(c2ccccc2-c2cnc(N3CCC(S(C)(=O)=O)CC3)nc2)CCN1C(=O)Cn1ccc2cccnc21 (stereo not drawn) [1-[2-methyl-4-(2-{2-[4-(methylsulfonyl)piperidin-1-yl]pyrimidin-5-yl}phenyl)piperazin-1-yl]-2-(1H-pyrrolo[2,3-b]pyridin-1-yl)ethanone]"
2,0.009 µM,"CS(=O)(=O)C1CCN(c2ncc(-c3cc(F)ccc3N3CCN(C(=O)Cn4ccc5cccnc54)CC3)cn2)CC1 [1-[4-(4-fluoro-2-{2-[4-(methylsulfonyl)piperidin-1-yl]pyrimidin-5-yl}phenyl)piperazin-1-yl]-2-(1H-pyrrolo[2,3-b]pyridin-1-yl)ethanone]"
3,0.009 µM,"Cc1cc(C)n(CC(=O)N2CCN(c3ccccc3-c3cnc(N4CCCC(C(N)=O)C4)nc3)CC2)n1 (stereo not drawn) [1-[5-(2-{4-[2-(3,5-Dimethyl-pyrazol-1-yl)-acetyl]-piperazin-1-yl}-phenyl)-pyrimidin-2-yl]-piperidine-3-carboxylic acid amide]"
4,0.009 µM,"CNC(=O)C1CCN(c2ncc(-c3ccccc3N3CCN(C(=O)Cn4nc(C)cc4C)CC3)cn2)CC1 [1-[5-(2-{4-[2-(3,5-Dimethyl-pyrazol-1-yl)-acetyl]-piperazin-1-yl}-phenyl)-pyrimidin-2-yl]-piperidine-4-carboxylic acid methylamide]"
5,0.008 µM,"CC1CN(c2ccccc2-c2cnc(N3CCC(S(C)(=O)=O)CC3)nc2)CCN1C(=O)Cn1ccc2ccncc21 (stereo not drawn) [1-[2-methyl-4-(2-{2-[4-(methylsulfonyl)piperidin-1-yl]pyrimidin-5-yl}phenyl)piperazin-1-yl]-2-(1H-pyrrolo[2,3-c]pyridin-1-yl)ethanone]"
6,0.008 µM,"CC1CN(c2ccc(F)cc2-c2cnc(N3CCC(S(C)(=O)=O)CC3)nc2)CCN1C(=O)Cn1ccc2cccnc21 (stereo not drawn) [1-[4-(4-fluoro-2-{2-[4-(methylsulfonyl)piperidin-1-yl]pyrimidin-5-yl}phenyl)-2-methylpiperazin-1-yl]-2-(1H-pyrrolo[2,3-b]pyridin-1-yl)ethanone]"
7,0.008 µM,"CC1CN(c2ccc(F)cc2-c2cnc(N3CCC(S(C)(=O)=O)CC3)nc2)CCN1C(=O)Cn1ccc2ccncc21 (stereo not drawn) [1-[4-(4-fluoro-2-{2-[4-(methylsulfonyl)piperidin-1-yl]pyrimidin-5-yl}phenyl)-2-methylpiperazin-1-yl]-2-(1H-pyrrolo[2,3-c]pyridin-1-yl)ethanone]"
8,0.008 µM,"CS(=O)(=O)C1CCN(c2ncc(-c3cc(F)ccc3N3CCN(C(=O)Cn4ccc5ccncc54)CC3)cn2)CC1 [1-[4-(4-fluoro-2-{2-[4-(methylsulfonyl)piperidin-1-yl]pyrimidin-5-yl}phenyl)piperazin-1-yl]-2-(1H-pyrrolo[2,3-c]pyridin-1-yl)ethanone]"
9,0.007 µM,"CS(=O)(=O)C1CCN(c2ncc(-c3cc(F)ccc3N3CCN(C(=O)Cn4c(=O)[nH]c5ccccc54)CC3)cn2)CC1 [1-{2-[4-(4-fluoro-2-{2-[4-(methylsulfonyl)piperidin-1-yl]pyrimidin-5-yl}phenyl)piperazin-1-yl]-2-oxoethyl}-1,3-dihydro-2H-benzimidazol-2-one]"
10,0.007 µM,"CC1CN(c2ccc(C(F)(F)F)cc2-c2cnc(N3CCC(S(C)(=O)=O)CC3)nc2)CCN1C(=O)Cn1ccc2ccncc21 (stereo not drawn) [1-{2-methyl-4-[2-{2-[4-(methylsulfonyl)piperidin-1-yl]pyrimidin-5-yl}-4-(trifluoromethyl)phenyl]piperazin-1-yl}-2-(1H-pyrrolo[2,3-c]pyridin-1-yl)ethanone]"
11,0.006 µM,"Cc1cc(C)n(CC(=O)N2CCN(c3ccccc3-c3cnc(N4CCC(C(N)=O)CC4)nc3)CC2)n1 [1-[5-(2-{4-[2-(3,5-Dimethyl-pyrazol-1-yl)-acetyl]-piperazin-1-yl}-phenyl)-pyrimidin-2-yl]-piperidine-4-carboxylic acid amide]"
